Measured values taken from US8901118B2, “Compounds and methods for kinase modulation, and indications therefor” (Plexxikon Inc., priority 2010, dated 2014).

Assays:
Fms kinase = Fms kinase (Homo sapiens, UniProt P07333); test: Fms kinase biochemical activity assay (AlphaScreen, biotin-(E4Y)10 phosphorylation); details: 100 μM ATP; read-out: Biochemical Inhibition IC50 Fms
Summary of the method: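 Fms kinase (1 ng/well) phosphorylating 30 nM biotin-(E4Y)10 with 100 μM ATP in 25 mM Hepes pH 7.5, MgCl2/MnCl2, 5% DMSO, 20 min at 30 °C. Phosphotyrosine detected by AlphaScreen streptavidin donor and PY20 acceptor beads; IC50 from signal versus compound concentration.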

CYP2C19 = CYP2C19 (Homo sapiens, UniProt P33261); test: CYP2C19 inhibition (fluorescent substrate CEC); format: in vitro ADME; details: read-out: Cyp IC50 2C19
Summary of the method: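 Compounds, serially diluted 1:1 over 10 points in NADPH-regenerating cofactor mix with 5% acetonitrile, were preincubated 10 min at 37 °C, then run with enzyme and substrate at 37 °C (CYP1A2 15 min; CYP2C9 45 min; CYP2C19, CYP2D6 30 min). Product fluorescence gave IC50s.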

CYP2C19, sequence (P33261 whole entry): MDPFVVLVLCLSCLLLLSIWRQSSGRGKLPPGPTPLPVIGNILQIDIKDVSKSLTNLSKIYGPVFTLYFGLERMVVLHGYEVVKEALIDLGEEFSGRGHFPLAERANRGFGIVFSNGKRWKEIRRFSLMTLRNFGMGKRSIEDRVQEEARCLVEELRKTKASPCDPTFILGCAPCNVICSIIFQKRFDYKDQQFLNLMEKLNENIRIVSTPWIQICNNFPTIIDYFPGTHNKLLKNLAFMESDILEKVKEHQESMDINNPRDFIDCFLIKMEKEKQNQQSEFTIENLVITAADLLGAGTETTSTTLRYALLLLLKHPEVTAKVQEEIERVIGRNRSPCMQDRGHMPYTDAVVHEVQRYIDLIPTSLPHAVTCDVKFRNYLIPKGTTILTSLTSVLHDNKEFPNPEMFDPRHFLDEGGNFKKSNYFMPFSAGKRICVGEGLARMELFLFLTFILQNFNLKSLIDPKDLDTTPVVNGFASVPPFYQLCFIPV
Fms kinase, sequence (P07333 20-972): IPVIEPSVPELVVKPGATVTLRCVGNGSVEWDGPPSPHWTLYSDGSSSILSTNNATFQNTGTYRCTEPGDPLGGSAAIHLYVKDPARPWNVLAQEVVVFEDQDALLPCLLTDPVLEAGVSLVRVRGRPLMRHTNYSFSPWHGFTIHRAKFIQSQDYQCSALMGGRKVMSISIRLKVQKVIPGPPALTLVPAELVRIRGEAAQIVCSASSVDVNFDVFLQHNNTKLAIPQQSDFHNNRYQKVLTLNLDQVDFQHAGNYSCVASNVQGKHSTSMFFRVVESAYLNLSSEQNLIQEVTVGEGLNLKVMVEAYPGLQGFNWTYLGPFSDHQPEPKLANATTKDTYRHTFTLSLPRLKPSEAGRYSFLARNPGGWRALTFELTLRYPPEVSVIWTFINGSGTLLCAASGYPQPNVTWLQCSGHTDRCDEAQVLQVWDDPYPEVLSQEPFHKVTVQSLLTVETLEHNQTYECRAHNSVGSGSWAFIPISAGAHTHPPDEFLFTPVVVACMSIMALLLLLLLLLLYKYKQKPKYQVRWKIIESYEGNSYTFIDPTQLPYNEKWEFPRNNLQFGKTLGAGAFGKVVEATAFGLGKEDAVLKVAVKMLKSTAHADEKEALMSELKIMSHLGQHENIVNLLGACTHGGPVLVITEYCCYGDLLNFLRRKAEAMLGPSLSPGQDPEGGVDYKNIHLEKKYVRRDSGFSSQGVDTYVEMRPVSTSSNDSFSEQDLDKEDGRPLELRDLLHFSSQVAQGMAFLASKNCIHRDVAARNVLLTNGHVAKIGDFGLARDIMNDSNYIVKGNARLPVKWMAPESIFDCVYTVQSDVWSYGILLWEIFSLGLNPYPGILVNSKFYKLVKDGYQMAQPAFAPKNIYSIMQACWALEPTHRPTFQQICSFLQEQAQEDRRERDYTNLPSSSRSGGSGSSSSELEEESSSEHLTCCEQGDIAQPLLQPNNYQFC

IC50 (Fms kinase) | IC50 (CYP2C19) | SMILES
< 0.1 µM | > 10 µM | Clc1cnc2[nH]cc(Cc3cnc(NC4CCCCC4)nc3)c2c1 [Compound P-3001, [5-(5-chloro-1H-pyrrolo[2,3-b]pyridin-3-ylmethyl)-pyrimidin-2-yl]-cyclohexyl-amine]
< 1 µM |  | Clc1cnc2[nH]cc(Cc3cnc(NC4CCCC4)nc3)c2c1 [Compound P-3003, [5-(5-Chloro-1H-pyrrolo[2,3-b]pyridin-3-ylmethyl)-pyrimidin-2-yl]-cyclopentyl-amine]
< 0.01 µM | 5 to 10 µM | FC1(F)CCC(Nc2ncc(Cc3c[nH]c4ncc(Cl)cc34)cn2)CC1 [Compound P-3004]
< 1 µM |  | Clc1cnc2[nH]cc(Cc3cnc(NC4CC4)nc3)c2c1 [Compound P-3005, [5-(5-Chloro-1H-pyrrolo[2,3-b]pyridin-3-ylmethyl)-pyrimidin-2-yl]-cyclopropyl-amine]
< 0.01 µM | > 10 µM | Clc1cnc2[nH]cc(Cc3cnc(NC4CCCCCC4)nc3)c2c1 [Compound P-3006, [5-(5-Chloro-1H-pyrrolo[2,3-b]pyridin-3-ylmethyl)-pyrimidin-2-yl]-cycloheptyl-amine]
< 0.1 µM |  | COc1ccccc1Nc1ncc(Cc2c[nH]c3ncc(Cl)cc23)cn1 [Compound P-3016, [5-(5-Chloro-1H-pyrrolo[2,3-b]pyridin-3-ylmethyl)-pyrimidin-2-yl]-(2-methoxy-phenyl)-amine]
< 0.1 µM |  | Fc1cccc(Nc2ncc(Cc3c[nH]c4ncc(Cl)cc34)cn2)c1 [Compound P-3017, [5-(5-Chloro-1H-pyrrolo[2,3-b]pyridin-3-ylmethyl)-pyrimidin-2-yl]-(3-fluoro-phenyl)-amine]
< 0.01 µM |  | COc1ccc(Nc2ncc(Cc3c[nH]c4ncc(C)cc34)cn2)cn1 [Compound P-3020, (6-Methoxy-pyridin-3-yl)-[5-(5-methyl-1H-pyrrolo[2,3-b]pyridin-3-ylmethyl)-pyrimidin-2-yl]-amine]
< 0.01 µM |  | COc1ccc(Nc2ncc(Cc3c[nH]c4ncc(C)cc34)cn2)cc1 [Compound P-3021, (4-Methoxy-phenyl)-[5-(5-methyl-1H-pyrrolo[2,3-b]pyridin-3-ylmethyl)-pyrimidin-2-yl]-amine]
< 0.1 µM |  | COc1cc(Nc2ncc(Cc3c[nH]c4ncc(C)cc34)cn2)ccc1F [Compound P-3022, (4-Fluoro-3-methoxy-phenyl)-[5-(5-methyl-1H-pyrrolo[2,3-b]pyridin-3-ylmethyl)-pyrimidin-2-yl]-amine]
< 0.1 µM |  | COc1ccc(Nc2ncc(Cc3c[nH]c4ncc(C)cc34)cn2)cc1F [Compound P-3023, (3-Fluoro-4-methoxy-phenyl)-[5-(5-methyl-1H-pyrrolo[2,3-b]pyridin-3-ylmethyl)-pyrimidin-2-yl]-amine]
< 0.1 µM |  | CCCOc1ccc(Nc2ncc(Cc3c[nH]c4ncc(C)cc34)cn2)cc1 [Compound P-3024, [5-(5-Methyl-1H-pyrrolo[2,3-b]pyridin-3-ylmethyl)-pyrimidin-2-yl]-(4-propoxy-phenyl)-amine]
< 0.1 µM |  | CCc1ccc(Nc2ncc(Cc3c[nH]c4ncc(C)cc34)cn2)cc1 [Compound P-3025, (4-Ethyl-phenyl)-[5-(5-methyl-1H-pyrrolo[2,3-b]pyridin-3-ylmethyl)-pyrimidin-2-yl]-amine]
< 0.01 µM |  | CCOc1ccc(Nc2ncc(Cc3c[nH]c4ncc(C)cc34)cn2)cc1 [Compound P-3026, (4-Ethoxy-phenyl)-[5-(5-methyl-1H-pyrrolo[2,3-b]pyridin-3-ylmethyl)-pyrimidin-2-yl]-amine]
< 0.01 µM |  | CCOc1ccc(Nc2ncc(Cc3c[nH]c4ncc(C)cc34)cn2)cn1 [Compound P-3027, (6-Ethoxy-pyridin-3-yl)-[5-(5-methyl-1H-pyrrolo[2,3-b]pyridin-3-ylmethyl)-pyrimidin-2-yl]-amine]
> 1 µM |  | Cc1cnc2[nH]cc(Cc3cnc(Nc4cc(-c5ccc(F)cc5)n[nH]4)nc3)c2c1 [Compound P-3028, [5-(4-Fluoro-phenyl)-2H-pyrazol-3-yl]-[5-(5-methyl-1H-pyrrolo[2,3-b]pyridin-3-ylmethyl)-pyrimidin-2-yl]-amine]
< 0.1 µM |  | Cc1cnc2[nH]cc(Cc3cnc(Nc4cc(C(C)(C)C)n[nH]4)nc3)c2c1 [Compound P-3029, (5-tert-Butyl-2H-pyrazol-3-yl)-[5-(5-methyl-1H-pyrrolo[2,3-b]pyridin-3-ylmethyl)-pyrimidin-2-yl]-amine]
< 0.1 µM |  | Cc1cnc2[nH]cc(Cc3cnc(Nc4ccc(C(C)(C)C)cc4)nc3)c2c1 [Compound P-3030, (4-tert-Butyl-phenyl)-[5-(5-methyl-1H-pyrrolo[2,3-b]pyridin-3-ylmethyl)-pyrimidin-2-yl]-amine amine]

IC50 (Fms kinase) | IC50 (CYP2C19) | SMILES
< 1 µM |  | Cc1cnc2[nH]cc(Cc3cnc(Nc4ccc(C(O)(C(F)(F)F)C(F)(F)F)cc4)nc3)c2c1 [Compound P-3031, 1,1,1,3,3,3-Hexafluoro-2-{4-[5-(5-methyl-1H-pyrrolo[2,3-b]pyridin-3-ylmethyl)-pyrimidin-2-ylamino]-phenyl}-propan-2-ol]
> 1 µM |  | Cc1cnc2[nH]cc(Cc3cnc(Nc4cc(C5CC5)n[nH]4)nc3)c2c1 [Compound P-3032, (5-Cyclopropyl-2H-pyrazol-3-yl)-[5-(5-methyl-1H-pyrrolo[2,3-b]pyridin-3-ylmethyl)-pyrimidin-2-yl]-amine]
< 0.1 µM |  | CSc1ccc(Nc2ncc(Cc3c[nH]c4ncc(C)cc34)cn2)cc1 [Compound P-3033, [5-(5-Methyl-1H-pyrrolo[2,3-b]pyridin-3-ylmethyl)-pyrimidin-2-yl]-(4-methylsulfanyl-phenyl)-amine]
< 0.1 µM |  | Cc1cnc2[nH]cc(Cc3cnc(Nc4ccc(S(C)(=O)=O)cc4)nc3)c2c1 [Compound P-3034, (4-Methanesulfonyl-phenyl)-[5-(5-methyl-1H-pyrrolo[2,3-b]pyridin-3-ylmethyl)-pyrimidin-2-yl]-amine]
< 1 µM |  | CCn1ccc(Nc2ncc(Cc3c[nH]c4ncc(C)cc34)cn2)n1 [Compound P-3035, (1-Ethyl-1H-pyrazol-3-yl)-[5-(5-methyl-1H-pyrrolo[2,3-b]pyridin-3-ylmethyl)-pyrimidin-2-yl]-amine]
< 0.01 µM |  | CCn1cc(Nc2ncc(Cc3c[nH]c4ncc(C)cc34)cn2)cn1 [Compound P-3036, (1-Ethyl-1H-pyrazol-4-yl)-[5-(5-methyl-1H-pyrrolo[2,3-b]pyridin-3-ylmethyl)-pyrimidin-2-yl]-amine]
> 1 µM |  | Cc1cnc2[nH]cc(Cc3cnc(Nc4cc(C(F)(F)F)n[nH]4)nc3)c2c1 [Compound P-3037, [5-(5-Methyl-1H-pyrrolo[2,3-b]pyridin-3-ylmethyl)-pyrimidin-2-yl]-(5-trifluoromethyl-2H-pyrazol-3-yl)-amine]
< 1 µM |  | Cc1cnc2[nH]cc(Cc3cnc(Nc4cc(OC(C)C)n[nH]4)nc3)c2c1 [Compound P-3038, (5-Isopropoxy-2H-pyrazol-3-yl)-[5-(5-methyl-1H-pyrrolo[2,3-b]pyridin-3-ylmethyl)-pyrimidin-2-yl]-amine]
< 0.01 µM |  | Cc1ccc(Nc2ccc(Cc3c[nH]c4ncc(Cl)cc34)c(F)n2)cn1 [Compound P-3042, [5-(5-Chloro-1H-pyrrolo[2,3-b]pyridin-3-ylmethyl)-6-fluoro-pyridin-2-yl]-(6-methyl-pyridin-3-yl)-amine]
< 0.01 µM |  | CCOc1ccc(Nc2ccc(C(=O)c3c[nH]c4ncc(C)cc34)c(F)n2)cn1 [Compound P-3045, [6-(6-ethoxy-pyridin-3-ylamino)-2-fluoro-pyridin-3-yl]-(5-methyl-1H-pyrrolo[2,3-b]pyridin-3-yl)-methanone]
< 0.01 µM |  | CCOc1ncnc2[nH]cc(Cc3ccc(Nc4ccc(Br)nc4)nc3F)c12 [Compound P-4020, (6-Bromo-pyridin-3-yl)-[5-(4-ethoxy-7H-pyrrolo[2,3-d]pyrimidin-5-ylmethyl)-6-fluoro-pyridin-2-yl]-amine]
< 0.1 µM |  | CCOc1ncnc2[nH]cc(Cc3ccc(Nc4cccnc4)nc3F)c12 [Compound P-4021, [5-(4-Ethoxy-7H-pyrrolo[2,3-d]pyrimidin-5-ylmethyl)-6-fluoro-pyridin-2-yl]-pyridin-3-yl-amine]
< 0.01 µM |  | CCOc1ccc(Nc2ccc(Cc3c[nH]c4ncnc(C5CC5)c34)c(F)n2)cn1 [Compound P-4026, [5-(4-Cyclopropyl-7H-pyrrolo[2,3-d]pyrimidin-5-ylmethyl)-6-fluoro-pyridin-2-yl]-(6-ethoxy-pyridin-3-yl)-amine]
< 0.1 µM |  | CCOc1ccc(Nc2ccc(C(=O)c3c[nH]c4ncnc(C5CC5)c34)c(F)n2)cn1 [Compound P-4027, (4-Cyclopropyl-7H-pyrrolo[2,3-d]pyrimidin-5-yl)-[6-(6-ethoxy-pyridin-3-ylamino)-2-fluoro-pyridin-3-yl]-methanone]
< 0.1 µM |  | CCOc1ccc(Nc2ccc(C(=O)c3c[nH]c4ncnc(C)c34)c(F)n2)cn1 [Compound P-4032, [6-(6-Ethoxy-pyridin-3-ylamino)-2-fluoro-pyridin-3-yl]-(4-methyl-7H-pyrrolo[2,3-d]pyrimidin-5-yl)-methanone]
< 0.1 µM |  | Cc1cncc(Nc2ccc(Cc3c[nH]c4ncnc(C5CC5)c34)c(F)n2)c1 [Compound P-4038, [5-(4-Cyclopropyl-7H-pyrrolo[2,3-d]pyrimidin-5-ylmethyl)-6-fluoro-pyridin-2-yl]-(5-methyl-pyridin-3-yl)-amine]
< 1 µM |  | Cc1cncc(Nc2ccc(C(=O)c3c[nH]c4ncnc(C5CC5)c34)c(F)n2)c1 [Compound P-4039, (4-Cyclopropyl-7H-pyrrolo[2,3-d]pyrimidin-5-yl)-[2-fluoro-6-(5-methyl-pyridin-3-ylamino)-pyridin-3-yl]-methanone]
